Laboratory results taken from ChEMBL document CHEMBL1201862, “PubChem BioAssay data set” (2004).
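Tested at 5 concentrations; 48 h exposure; 96-well plates; endpoints linearly interpolated, else capped at highest concentration. GI50 = concentration required for 50% inhibition of growth.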 Calls of active or inactive are those of the source. Cut-off read from the data, not from the text of the source: active = GI50 up to about 1.1 µM and inactive = higher.

Key:
Assay in all cases: growth of human tumour cells (NCI), 48 h
UACC-257 = test system: UACC-257
HCT-116 = test system: HCT-116
NCI-H23 = test system: NCI-H23
MCF7 = test system: MCF7
HOP-62 = test system: HOP-62
Hs-578T = test system: Hs-578T
EKVX = test system: EKVX
NCI-H522 = test system: NCI-H522
K562 = test system: K562
CCRF-CEM = test system: CCRF-CEM
RXF 393 = test system: RXF 393
UO-31 = test system: UO-31
OVCAR-3 = test system: OVCAR-3
M14 = test system: M14
ACHN = test system: ACHN
NCI-H460 = test system: NCI-H460
SF-268 = test system: SF-268
OVCAR-8 = test system: OVCAR-8
LOX IMVI = test system: LOX IMVI
SK-OV-3 = test system: SK-OV-3

Compound	GI50 (UACC-257)	GI50 (HCT-116)	GI50 (NCI-H23)	GI50 (MCF7)	GI50 (HOP-62)	GI50 (Hs-578T)	GI50 (EKVX)	GI50 (NCI-H522)	GI50 (K562)	GI50 (CCRF-CEM)	GI50 (RXF 393)	GI50 (UO-31)	GI50 (OVCAR-3)	GI50 (M14)	GI50 (ACHN)	GI50 (NCI-H460)	GI50 (SF-268)	GI50 (OVCAR-8)	GI50 (LOX IMVI)	GI50 (SK-OV-3)
CC(=O)c1ccc(O)c(CN(C2CCCCC2)C2CCCCC2)c1O	> 100 µM (inactive)	> 100 µM (inactive)	> 100 µM (inactive)	> 100 µM (inactive)	> 100 µM (inactive)	> 100 µM (inactive)	> 100 µM (inactive)	> 100 µM (inactive)	> 100 µM (inactive)	0.0611 µM (active)	> 100 µM (inactive)	83.2 µM (inactive)	> 100 µM (inactive)	> 100 µM (inactive)	> 100 µM (inactive)	> 100 µM (inactive)	> 100 µM (inactive)	> 100 µM (inactive)	> 100 µM (inactive)	> 100 µM (inactive)
COC(=O)c1ccc(-n2c(C)nc(=O)c(-c3ccccc3)c2C)cc1	> 100 µM (inactive)	> 100 µM (inactive)	> 100 µM (inactive)	> 100 µM (inactive)	> 100 µM (inactive)	> 100 µM (inactive)	> 100 µM (inactive)	> 100 µM (inactive)	> 100 µM (inactive)	> 100 µM (inactive)	> 100 µM (inactive)	> 100 µM (inactive)	> 100 µM (inactive)	> 100 µM (inactive)	> 100 µM (inactive)	> 100 µM (inactive)	> 100 µM (inactive)	> 100 µM (inactive)	> 100 µM (inactive)	> 100 µM (inactive)
COc1ccc2nc3cc(Cl)ccc3c(NCCCN(CCCl)CCCl)c2c1	0.122 µM (active)	0.012 µM (active)	0.0116 µM (active)	< 0.01 µM (active)	0.0301 µM (active)	0.0328 µM (active)	0.11 µM (active)	0.0105 µM (active)	0.0123 µM (active)	< 0.01 µM (active)	0.0107 µM (active)	0.0472 µM (active)	0.0432 µM (active)	0.0408 µM (active)	< 0.01 µM (active)	< 0.01 µM (active)	0.0164 µM (active)	0.0125 µM (active)	0.0126 µM (active)	0.0484 µM (active)
Cc1ccc(C2=Nc3c(c(C)nn3-c3ccccc3)N=C(C(=O)O)C2)cc1	> 10 µM (inactive)	> 10 µM (inactive)	> 10 µM (inactive)	> 10 µM (inactive)	> 10 µM (inactive)	> 10 µM (inactive)	> 10 µM (inactive)	> 10 µM (inactive)	> 10 µM (inactive)	> 10 µM (inactive)	> 10 µM (inactive)	> 10 µM (inactive)	> 10 µM (inactive)	> 10 µM (inactive)	> 10 µM (inactive)	> 10 µM (inactive)	> 10 µM (inactive)	> 10 µM (inactive)	> 10 µM (inactive)	> 10 µM (inactive)
COc1ccc(COCC[C@H](C)OC2OC(CO[Si](C)(C)C(C)(C)C)C(O)C(O)C2O)cc1 (stereo not given in full)	> 100 µM (inactive)	> 100 µM (inactive)	> 100 µM (inactive)	> 100 µM (inactive)	> 100 µM (inactive)	> 100 µM (inactive)	> 100 µM (inactive)	> 100 µM (inactive)	> 100 µM (inactive)	> 100 µM (inactive)	> 100 µM (inactive)	81.8 µM (inactive)	> 100 µM (inactive)	> 100 µM (inactive)	> 100 µM (inactive)	> 100 µM (inactive)	> 100 µM (inactive)	> 100 µM (inactive)	> 100 µM (inactive)	> 100 µM (inactive)
COC(=O)c1sc2c(c1C(=O)OC)/C(=N/c1ccc(OC)cc1)S/C2=N\c1ccc(OC)cc1	1.32 µM (inactive)	0.451 µM (active)	1.57 µM (inactive)	1.08 µM (active)	0.789 µM (active)	1.5 µM (inactive)	1.55 µM (inactive)	0.541 µM (active)	0.389 µM (active)	0.104 µM (active)	0.47 µM (active)	0.865 µM (active)	0.611 µM (active)	1.45 µM (inactive)	1.24 µM (inactive)	1.33 µM (inactive)	1.55 µM (inactive)	0.944 µM (active)	0.258 µM (active)	1.69 µM (inactive)
COC(=O)c1cc2ccc(OC(C)=O)c(OC(C)=O)c2cn1	14.4 µM (inactive)	17.3 µM (inactive)	18 µM (inactive)	2.79 µM (inactive)	25.5 µM (inactive)	> 10 µM (inactive)	22.6 µM (inactive)	17.4 µM (inactive)	2.72 µM (inactive)	2.29 µM (inactive)	17.4 µM (inactive)	15.8 µM (inactive)	13 µM (inactive)	19 µM (inactive)	17.1 µM (inactive)	21.1 µM (inactive)	20.8 µM (inactive)	7.64 µM (inactive)	1.42 µM (inactive)	19.4 µM (inactive)
CCSc1nc(N2CCOCC2)c2cn[nH]c2n1	> 100 µM (inactive)	> 100 µM (inactive)	48.1 µM (inactive)	44.9 µM (inactive)	> 100 µM (inactive)	33.9 µM (inactive)	> 100 µM (inactive)	35 µM (inactive)	> 100 µM (inactive)	60.5 µM (inactive)	> 100 µM (inactive)	21.5 µM (inactive)	52.1 µM (inactive)	> 100 µM (inactive)	31.7 µM (inactive)	49.9 µM (inactive)	> 100 µM (inactive)	> 100 µM (inactive)	32.4 µM (inactive)	86.3 µM (inactive)
O=c1[nH]c2cc([N+](=O)[O-])c(N(CCO)CCO)c([N+](=O)[O-])c2[nH]1	27 µM (inactive)	27.7 µM (inactive)	30.5 µM (inactive)	46.8 µM (inactive)	33 µM (inactive)	53.2 µM (inactive)	12.9 µM (inactive)	28.1 µM (inactive)	32 µM (inactive)	44.7 µM (inactive)	16.7 µM (inactive)	35.1 µM (inactive)	16.9 µM (inactive)	28.6 µM (inactive)	43.7 µM (inactive)	21.4 µM (inactive)	37.4 µM (inactive)	31.3 µM (inactive)	37.5 µM (inactive)	27 µM (inactive)
CC(C)C(N)(C(=O)O)c1ccccc1 (stereo not given)	> 100 µM (inactive)	> 100 µM (inactive)	> 100 µM (inactive)	> 100 µM (inactive)	> 100 µM (inactive)	> 100 µM (inactive)	> 100 µM (inactive)	> 100 µM (inactive)	> 100 µM (inactive)	> 100 µM (inactive)	> 100 µM (inactive)	> 100 µM (inactive)	> 100 µM (inactive)	> 100 µM (inactive)	> 100 µM (inactive)	> 100 µM (inactive)	> 100 µM (inactive)	> 100 µM (inactive)	> 100 µM (inactive)	> 100 µM (inactive)
CC1(C)C=C(/C=N/Nc2ccc(Br)cc2)C(C#N)=C(O)C1(C#N)C#N	31.8 µM (inactive)	32.2 µM (inactive)	46 µM (inactive)	26.5 µM (inactive)	63 µM (inactive)	63.8 µM (inactive)	54.3 µM (inactive)	75.9 µM (inactive)	17.7 µM (inactive)	35.8 µM (inactive)	33.8 µM (inactive)	22.8 µM (inactive)	31.9 µM (inactive)	26.6 µM (inactive)	33.3 µM (inactive)	33.1 µM (inactive)	40.9 µM (inactive)	52.5 µM (inactive)	64.6 µM (inactive)	57.8 µM (inactive)
Cc1ccc2c(n1)C(=O)c1ccccc1C2=O	19.1 µM (inactive)	22.9 µM (inactive)	14.7 µM (inactive)	17.3 µM (inactive)	38 µM (inactive)	72.3 µM (inactive)	27.5 µM (inactive)	21.7 µM (inactive)	30.2 µM (inactive)	37.7 µM (inactive)	24.8 µM (inactive)	32.5 µM (inactive)	3.53 µM (inactive)	> 44.5 µM (inactive)	31.8 µM (inactive)	15.8 µM (inactive)	31.3 µM (inactive)	26.7 µM (inactive)	17.6 µM (inactive)	77.4 µM (inactive)
COC(=O)C1OC(O[C@H]2CC[C@]3(C)[C@H]4CC=C5[C@@H]6CC(C)(C)CC[C@]6(C(=O)OC)CC[C@@]5(C)[C@]4(C)CC[C@H]3C2(C)C)C(O)C(O)C1O (stereo not given in full)	19.5 µM (inactive)	12.3 µM (inactive)	11.9 µM (inactive)	12.5 µM (inactive)	18 µM (inactive)	19.9 µM (inactive)	12.4 µM (inactive)	15.4 µM (inactive)	14.9 µM (inactive)	5.66 µM (inactive)	5.62 µM (inactive)	19.3 µM (inactive)	4.34 µM (inactive)	16.2 µM (inactive)	11.8 µM (inactive)	8.38 µM (inactive)	17.8 µM (inactive)	13.6 µM (inactive)	6.67 µM (inactive)	20.2 µM (inactive)
CSCCC(N)C(=O)NCCNc1ccc(NCCNC(=O)C(N)CCSC)c2c1C(=O)c1ccccc1C2=O (stereo not given)	3.25 µM (inactive)	0.424 µM (active)	1.05 µM (active)	0.409 µM (active)	0.783 µM (active)	1.02 µM (active)	2.46 µM (inactive)	0.199 µM (active)	1.42 µM (inactive)	0.528 µM (active)	1.91 µM (inactive)	1.41 µM (inactive)	3.03 µM (inactive)	3.38 µM (inactive)	0.456 µM (active)	0.351 µM (active)	0.659 µM (active)	0.441 µM (active)	0.624 µM (active)	2.62 µM (inactive)
